Like-named read-outs stand apart in the source and are kept apart here.

We go through 7 compounds from article PMC8177814 (Molecular pharmaceutics, 2020).

In data set [1] the target is T1, BCRP (ABCG2) (Homo sapiens, UniProt Q9UNQ0).
T1 sequence (Q9UNQ0 1-655): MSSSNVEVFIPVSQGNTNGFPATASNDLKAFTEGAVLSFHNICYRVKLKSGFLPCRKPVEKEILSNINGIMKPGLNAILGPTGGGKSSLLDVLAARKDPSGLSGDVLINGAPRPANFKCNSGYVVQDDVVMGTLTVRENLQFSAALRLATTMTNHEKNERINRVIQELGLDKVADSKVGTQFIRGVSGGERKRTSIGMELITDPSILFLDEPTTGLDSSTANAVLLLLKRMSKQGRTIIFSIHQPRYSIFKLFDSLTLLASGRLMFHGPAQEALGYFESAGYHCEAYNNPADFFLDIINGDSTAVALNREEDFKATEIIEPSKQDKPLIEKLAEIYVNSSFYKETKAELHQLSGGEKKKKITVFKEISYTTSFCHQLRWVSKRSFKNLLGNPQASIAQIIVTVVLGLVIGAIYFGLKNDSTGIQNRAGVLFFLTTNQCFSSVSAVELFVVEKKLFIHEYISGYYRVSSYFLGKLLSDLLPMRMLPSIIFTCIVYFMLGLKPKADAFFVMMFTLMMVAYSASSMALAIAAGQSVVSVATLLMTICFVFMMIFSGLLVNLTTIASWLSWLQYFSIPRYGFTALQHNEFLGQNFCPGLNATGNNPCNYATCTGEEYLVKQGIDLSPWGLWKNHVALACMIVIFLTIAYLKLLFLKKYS
As to conditions: 30 min.

Another data set concerns BCRP. Conditions: previous study; cited from earlier work.
Data set [2] concerns the target T2, human BCRP (Homo sapiens, UniProt Q9UNQ0).
T2 sequence (Q9UNQ0 1-655): T1 sequence (Q9UNQ0 1-655)
The data set can be described thus: BCRP vesicular transport assay.

Data set [3] deals with T2, human BCRP.
Data set [4] has as its target T1, BCRP (ABCG2). Put plainly: 3H-oxypurinol accumulation assay in BCRP-overexpressing HEK293 cells. Conditions: excipients at concentrations similar to vesicle screen; 30 min.

Take `CCCCC(CC)COC(=O)CC(C(=O)OCC(CC)CCCC)S(=O)(=O)O` (stereo not shown) [Docusate sodium]: on BCRP (ABCG2) [1], the “increase of BCRP-mediated 3H-oxypurinol accumulation in BCRP-overexpressing HEK293 cells” value (“increase” below) was found to be 26.4%.

For the compound `CCN(Cc1cccc(S(=O)(=O)[O-])c1)c1ccc(C(=C2C=CC(=[N+](CC)Cc3cccc(S(=O)(=O)[O-])c3)C=C2)c2ccccc2S(=O)(=O)[O-])cc1.[Na+].[Na+]` [FD&C Blue No. 1], the “inhibition of BCRP-mediated Lucifer yellow uptake in vesicle assays” value in the data set with BCRP is on record as “did not inhibit”. Further, the “inhibition of BCRP-mediated 3H-CCK8 uptake in vesicles (in words)” value against human BCRP [2] (screening concentration, inhibitor = more than 50% inhibition) is reported as “inhibited”.

For the compound `CCN(CC)c1ccc2c(-c3ccccc3C(=O)O)c3ccc(=[N+](CC)CC)cc-3oc2c1` [Rhodamine B], on BCRP (ABCG2) [1], the “increase” value is given as “more than 50%”.

In the case of `O=C1OC(c2ccc(O)c(S(=O)(=O)O)c2)(c2ccc(O)c(S(=O)(=O)O)c2)c2c(Br)c(Br)c(Br)c(Br)c21` [bromosulfophthalein, reference compound], the “3H-CCK8 uptake in human BCRP membrane vesicles” value at human BCRP [2] (5 mM ATP and 200 μM BSP, 37 °C, 5 min (ATP alone 1.88, AMP 0.58)) worked out at 0.44 pmol/mg/min.

For the compound `COc1cc(/C=C/C(=O)CC(=O)/C=C/c2ccc(O)c(OC)c2)ccc1O` [curcumin, reference compound], on BCRP (ABCG2) [1] (100 μM), the “(EV + I)/(EV – I), nonspecific effect on cell membranes” value was 0.571 and the “normalized oxypurinol accumulation ((BCRP + I)/(BCRP – I))/((EV + I)/(EV – I))” value turned out to be 3.7.

Take `COc1ccc(CCC(=O)c2c(O)cc(O[C@@H]3O[C@H](CO)[C@@H](O)[C@H](O)[C@H]3O[C@@H]3O[C@@H](C)[C@H](O)[C@@H](O)[C@H]3O)cc2O)cc1O` [neohesperidin DC]: the “inhibition of BCRP-mediated Lucifer yellow uptake in vesicle assays” value with BCRP is reported as “did inhibit”. Moreover, the “inhibition of BCRP-mediated 3H-CCK8 uptake in vesicles (in words)” value against human BCRP [3] was “did not inhibit”.

With D&C Brown No. 1, the “increase” value on BCRP (ABCG2) [4] was 26.8%.
